# In patent US20240287076A1, “COMPOUNDS FOR TARGETING DEGRADATION OF BRUTON'S TYROSINE KINASE” (BIOGEN MA INC., priority 2021, published 2024):
# Molecular target: T1, BTK (Homo sapiens, UniProt Q06187)
# T1 construct: The GM01501.3 cell line endogenously expresses BTK with a HiBiT fusion tag via CRISPR knock-in at its C-terminal region; endogenous in cells; host or cells: GM01501.3 (GM01501 cells engineered by CRISPR knock-in of HiBiT at the BTK locus)
# Assay: BTK degradation assay using the HiBiT Method (Nano-Glo HiBiT Lytic Assay, GM01501.3 cells)
# Type: cell-based
# Conditions: HiBiT Degradation on GM01501.3 BTK @ 6 hours
# How it was run: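 CRISPR knock-in GM01501.3 cells expressing endogenous BTK with C-terminal HiBiT tag, treated 6 h at 37 °C with compounds, 11-point half-log titration from 10 μM top, duplicates. Remaining BTK quantified by Nano-Glo HiBiT lytic luminescence versus DMSO controls; DC50 reported.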
# T1 sequence (Q06187 whole entry, the tested form may be a part): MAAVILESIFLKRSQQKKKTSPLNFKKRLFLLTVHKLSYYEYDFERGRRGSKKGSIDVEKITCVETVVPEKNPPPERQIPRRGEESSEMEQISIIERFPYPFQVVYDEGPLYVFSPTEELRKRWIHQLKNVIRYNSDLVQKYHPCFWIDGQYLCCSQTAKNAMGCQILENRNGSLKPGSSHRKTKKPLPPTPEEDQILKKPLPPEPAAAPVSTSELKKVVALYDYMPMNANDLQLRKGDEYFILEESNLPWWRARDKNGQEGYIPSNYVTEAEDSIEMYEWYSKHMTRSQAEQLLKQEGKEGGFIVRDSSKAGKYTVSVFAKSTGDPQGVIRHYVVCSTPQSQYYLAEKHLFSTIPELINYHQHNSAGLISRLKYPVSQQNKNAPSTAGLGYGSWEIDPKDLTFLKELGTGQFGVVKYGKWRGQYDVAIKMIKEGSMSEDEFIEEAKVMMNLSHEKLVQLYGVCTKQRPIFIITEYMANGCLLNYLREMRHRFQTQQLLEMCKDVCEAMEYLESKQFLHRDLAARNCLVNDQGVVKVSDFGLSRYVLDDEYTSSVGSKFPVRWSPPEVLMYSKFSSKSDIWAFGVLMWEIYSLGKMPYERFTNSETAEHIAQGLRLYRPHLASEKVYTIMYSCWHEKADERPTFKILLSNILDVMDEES
row,SMILES,DC50
1,"Cc1cc(-c2ncnn3cc(-c4ccc5sc(CN6CCC(c7ccc(C8CCC(=O)NC8=O)cc7)CC6)cc5n4)cc23)ccc1CNC(=O)c1noc(C(C)(C)C)n1 (stereo not drawn) [Example 218, 5-(tert-butyl)-N-(4-(6-(2-((4-(4-(2,6-dioxopiperidin-3-yl)phenyl)piperidin-1-yl)methyl)thieno[3,2-b]pyridin-5-yl)pyrrolo[2,1-f] [1,2,4]triazin-4-yl)-2-methylbenzyl)-1,2,4-oxadiazole-3-carboxamide]",100 to 500 nM
2,"CC(C)(C)OC1CN(C(=O)NCc2ccc(-c3ncnn4cc(-c5ccc(CN6CCC(c7ccc(NC8CCC(=O)NC8=O)cc7)CC6)c(F)c5)cc34)cc2F)C1 (stereo not drawn) [Example 221, 3-(tert-butoxy)-N-(4-(6-(4-((4-(4-((2,6-dioxopiperidin-3-yl)amino)phenyl)piperidin-1-yl)methyl)-3-fluorophenyl)pyrrolo[2,1-f][1,2,4]triazin-4-yl)-2-fluorobenzyl)azetidine-1-carboxamide]",< 100 nM
3,"CC(C)(C)c1nc(C(=O)NCc2ccc(-c3ncnn4cc(C#CC(F)(F)CN5CCC(c6ccc(C7CCC(=O)NC7=O)cc6)CC5)cc34)cc2F)no1 (stereo not drawn) [Example 225, 5-tert-butyl-N-[[4-[6-[4-[4-[4-(2,6-dioxo-3-piperidyl)phenyl]-1-piperidyl]-3,3-difluoro-but-1-ynyl]pyrrolo[2,1-f][1,2,4]triazin-4-yl]-2-fluoro-phenyl]methyl]-1,2,4-oxadiazole-3-carboxamide]",> 1000 nM
4,"CC(C)(C)c1nc(C(=O)NCc2ccc(-c3ncnn4cc(-c5ccc(CN6CCCC(Cc7ccc(OC8CCC(=O)NC8=O)cc7)C6)cn5)cc34)cc2F)no1 (stereo not drawn) [Example 227, 5-(tert-butyl)-N-(4-(6-(5-((3-(4-((2,6-dioxopiperidin-3-yl)oxy)benzyl)piperidin-1-yl)methyl)pyridin-2-yl)pyrrolo[2,1-f][1,2,4]triazin-4-yl)-2-fluorobenzyl)-1,2,4-oxadiazole-3-carboxamide]",100 to 500 nM
5,CC(C)(C)c1nc(C(=O)NCc2ccc(-c3ncnn4cc(-c5ccc(CN6CCOc7cc(OC8CCC(=O)NC8=O)ccc7C6)cn5)cc34)cc2F)no1 (stereo not drawn) [Example 228],100 to 500 nM
6,"CC(C)(C)c1nc(C(=O)NCc2ccc(-c3ncnn4cc(-c5ccc(CN6CCC(Cc7cccc(OC8CCC(=O)NC8=O)c7)CC6)cn5)cc34)cc2F)no1 (stereo not drawn) [Example 231, 5-(tert-butyl)-N-(4-(6-(5-((4-(3-((2,6-dioxopiperidin-3-yl)oxy)benzyl)piperidin-1-yl)methyl)pyridin-2-yl)pyrrolo[2,1-f][1,2,4]triazin-4-yl)-2-fluorobenzyl)-1,2,4-oxadiazole-3-carboxamide]",100 to 500 nM
7,"CC1c2cc(OC3CCC(=O)NC3=O)ccc2CCN1Cc1ccc(-c2cc3c(-c4ccc(CNC(=O)c5noc(C(C)(C)C)n5)c(F)c4)ncnn3c2)nc1 (stereo not drawn) [Example 232, 5-(tert-butyl)-N-(4-(6-(5-((7-((2,6-dioxopiperidin-3-yl)oxy)-1-methyl-3,4-dihydroisoquinolin-2(1H)-yl)methyl)pyridin-2-yl)pyrrolo[2,1-f][1,2,4]triazin-4-yl)-2-fluorobenzyl)-1,2,4-oxadiazole-3-carboxamide]",100 to 500 nM
8,"CC(C)(C)c1nc(C(=O)NCc2ccc(-c3ncnn4cc(-c5ccc(CN6CCN(Cc7ccc(OC8CCC(=O)NC8=O)cc7)CC6)cn5)cc34)cc2F)no1 (stereo not drawn) [Example 234, 5-(tert-butyl)-N-(4-(6-(5-((4-(4-((2,6-dioxopiperidin-3-yl)oxy)benzyl)piperazin-1-yl)methyl)pyridin-2-yl)pyrrolo[2,1-f][1,2,4]triazin-4-yl)-2-fluorobenzyl)-1,2,4-oxadiazole-3-carboxamide]",< 100 nM
9,"CC(C)(C)c1nc(C(=O)NCc2ccc(-c3ncnn4cc(-c5ccc(CN6CCN(Cc7cccc(OC8CCC(=O)NC8=O)c7)CC6)cn5)cc34)cc2F)no1 (stereo not drawn) [Example 235, 5-(tert-butyl)-N-(4-(6-(5-((4-(3-((2,6-dioxopiperidin-3-yl)oxy)benzyl)piperazin-1-yl)methyl)pyridin-2-yl)pyrrolo[2,1-f][1,2,4]triazin-4-yl)-2-fluorobenzyl)-1,2,4-oxadiazole-3-carboxamide]",< 100 nM
10,"CC(C)(C)c1nc(C(=O)NCc2ccc(-c3ncnn4cc(-c5ccc(CN6CCCC(c7ccc(OC8CCC(=O)NC8=O)cc7)C6)cn5)cc34)cc2F)no1 (stereo not drawn) [Example 236, 5-(tert-butyl)-N-(4-(6-(5-((3-(4-((2,6-dioxopiperidin-3-yl)oxy)phenyl)piperidin-1-yl)methyl)pyridin-2-yl)pyrrolo[2,1-f][1,2,4]triazin-4-yl)-2-fluorobenzyl)-1,2,4-oxadiazole-3-carboxamide]",< 100 nM
11,"CC(C)(C)c1nc(C(=O)NCc2ccc(-c3ncnn4cc(-c5ccc(CN6CCC(Cc7ccc(OC8CCC(=O)NC8=O)cc7)C6)cn5)cc34)cc2F)no1 (stereo not drawn) [Example 237, 5-(tert-butyl)-N-(4-(6-(5-((3-(4-((2,6-dioxopiperidin-3-yl)oxy)benzyl)pyrrolidin-1-yl)methyl)pyridin-2-yl)pyrrolo[2,1-f][1,2,4]triazin-4-yl)-2-fluorobenzyl)-1,2,4-oxadiazole-3-carboxamide]",< 100 nM

# Results, then the compound that gave them:
row,DC50,SMILES
1,< 100 nM,"Cc1cc(-c2ncnn3cc(-c4nccc(CN5CCC(c6ccc(C7CCC(=O)NC7=O)cc6)CC5)c4F)cc23)ccc1CNC(=O)c1noc(C(C)(C)C)n1 (stereo not drawn) [Example 217, 5-(tert-butyl)-N-(4-(6-(4-((4-(4-(2,6-dioxopiperidin-3-yl)phenyl)piperidin-1-yl)methyl)-3-fluoropyridin-2-yl)pyrrolo[2,1-f][1,2,4]triazin-4-yl)-2-methylbenzyl)-1,2,4-oxadiazole-3-carboxamide]"
2,< 100 nM,"Cc1cc(-c2ncnn3cc(-c4nc(CN5CCC(c6ccc(C7CCC(=O)NC7=O)cc6)CC5)co4)cc23)ccc1CNC(=O)c1noc(C(C)(C)C)n1 (stereo not drawn) [Example 219, 5-(tert-butyl)-N-(4-(6-(4-((4-(4-(2,6-dioxopiperidin-3-yl)phenyl)piperidin-1-yl)methyl)oxazol-2-yl)pyrrolo[2,1-f][1,2,4]triazin-4-yl)-2-methylbenzyl)-1,2,4-oxadiazole-3-carboxamide]"
3,< 100 nM,"Cc1cc(-c2ncnn3cc(-c4ccc(-c5n[nH]cc5CN5CCC(c6ccc(C7CCC(=O)NC7=O)cc6)CC5)s4)cc23)ccc1CNC(=O)c1noc(C(C)(C)C)n1 (stereo not drawn) [Example 220, 5-(tert-butyl)-N-(4-(6-(5-(4-((4-(4-(2,6-dioxopiperidin-3-yl)phenyl)piperidin-1-yl)methyl)-1H-pyrazol-3-yl)thiophen-2-yl)pyrrolo [2,1-f][1,2,4]triazin-4-yl)-2-methylbenzyl)-1,2,4-oxadiazole-3-carboxamide]"
4,< 100 nM,"CC(C)(C)c1nc(C(=O)NCc2ccc(-c3ncnn4cc(-c5ccc(CN6CCC(c7ccc(NC8CCC(=O)NC8=O)cn7)CC6)c(F)c5)cc34)cc2F)no1 (stereo not drawn) [Example 222, 5-(tert-butyl)-N-(4-(6-(4-((4-(5-((2,6-dioxopiperidin-3-yl)amino)pyridin-2-yl)piperidin-1-yl)methyl)-3-fluorophenyl)pyrrolo[2,1-f][1,2,4]triazin-4-yl)-2-fluorobenzyl)-1,2,4-oxadiazole-3-carboxamide]"
5,< 100 nM,"Cc1cc(-c2ccnc3cn(-c4ccc(CN5CCC(c6ccc(NC7CCC(=O)NC7=O)cc6)CC5)cc4)nc23)ccc1CNC(=O)c1noc(C(C)(C)C)n1 (stereo not drawn) [Example 223, 5-tert-butyl-N-[[4-[2-[4-[[4-[4-[(2,6-dioxo-3-piperidyl)amino]phenyl]-1-piperidyl]methyl]phenyl]pyrazolo[4,3-b]pyridin-7-yl]-2-methyl-phenyl]methyl]-1,2,4-oxadiazole-3-carboxamide]"
6,< 100 nM,"Cc1cc(-c2ccnc3cn(CCCCN4CCC(c5ccc(NC6CCC(=O)NC6=O)cc5)CC4)nc23)ccc1CNC(=O)c1noc(C(C)(C)C)n1 (stereo not drawn) [Example 224, 5-tert-butyl-N-[[4-[2-[4-[4-[4-[(2,6-dioxo-3-piperidyl)amino]phenyl]-1-piperidyl]butyl]pyrazolo[4,3-b]pyridin-7-yl]-2-methyl-phenyl]methyl]-1,2,4-oxadiazole-3-carboxamide]"
7,< 100 nM,CC(C)(C)c1nc(C(=O)NCc2ccc(-c3ncnn4cc(-c5ccc(CN6CCc7ccc(OC8CCC(=O)NC8=O)cc7C6)cn5)cc34)cc2F)no1 (stereo not drawn) [Example 226]
8,< 100 nM,"CN(CCOc1ccc(OC2CCC(=O)NC2=O)cc1)Cc1ccc(-c2cc3c(-c4ccc(CNC(=O)c5noc(C(C)(C)C)n5)c(F)c4)ncnn3c2)nc1 (stereo not drawn) [Example 229, 5-(tert-butyl)-N-(4-(6-(5-(((2-(4-((2,6-dioxopiperidin-3-yl)oxy)phenoxy)ethyl)(methyl)amino)methyl)pyridin-2-yl)pyrrolo[2,1-f][1,2,4]triazin-4-yl)-2-fluorobenzyl)-1,2,4-oxadiazole-3-carboxamide]"
9,< 100 nM,"CC(C)(C)c1nc(C(=O)NCc2ccc(-c3ncnn4cc(-c5ccc(CN6CCc7ccc(OC8CCC(=O)NC8=O)cc7CC6)cn5)cc34)cc2F)no1 (stereo not drawn) [Example 230, 5-(tert-butyl)-N-(4-(6-(5-((7-((2,6-dioxopiperidin-3-yl)oxy)-1,2,4,5-tetrahydro-3H-benzo[d]azepin-3-yl)methyl)pyridin-2-yl)pyrrolo [2,1-f][1,2,4]triazin-4-yl)-2-fluorobenzyl)-1,2,4-oxadiazole-3-carboxamide]"
10,< 100 nM,"CC(C)(C)c1nc(C(=O)NCc2ccc(-c3ncnn4cc(-c5ccc(CN6CCCCC6Cc6ccc(OC7CCC(=O)NC7=O)cc6)cn5)cc34)cc2F)no1 (stereo not drawn) [Example 233, 5-(tert-butyl)-N-(4-(6-(5-((2-(4-((2,6-dioxopiperidin-3-yl)oxy)benzyl)piperidin-1-yl)methyl)pyridin-2-yl)pyrrolo [2,1-f][1,2,4]triazin-4-yl)-2-fluorobenzyl)-1,2,4-oxadiazole-3-carboxamide]"
